The values below come from US9592243B2, “Medical devices and methods comprising an anabolic agent for treatment of an injury” (Warsaw Orthopedic, Inc., priority 2011, dated 2017).

The structures appear in SMILES notation.

In the experiment the test system is surgical injury (linear full-thickness incisions). The experiment in a line: Injury strength of full-thickness surgical incisions, vacuum failure pressure (BTC-2000). The experiment is classed as in vivo, male hairless guinea pigs. An excerpt: In a recent proof-of-concept study, male hairless guinea pigs (n=30) receive bilateral incisions as previously described by Storch, Perry, Davidson, and Ward (Surg Infect (Larchmt) 2002; 3 Suppl 1:S89-98) This reference is herein incorporated by reference. Two linear full-thickness incisions exactly 2 cm long and separated by approximately 3 cm were made on the left and right dorsolateral regions of all animals. Incisions extend through the dermis and subcutaneous tissue and panniculus carnosus muscle. After the injuries were created, 200 μL of a […] aqueous suspension (1 mg of drug, ˜2.7 mg/kg) of generic stanozolol was applied directly into the injury bed in the right flank but not left flank of n=16 animals. The injury bed on the left side of these animals received 200 μL of saline vehicle control. In the remaining fourteen animals, incisions were not treated (nothing applied control). Only the incision in the right flank was assessed for injury strength in the nothing applied control animals. All injuries were then closed with interrupted nylon sutures. On days 2, 4, and 6 (in remaining animals), animals in the stanozolol group received 100 μL (0.5 mg, ˜1.4 mg/kg) of the same stanozolol suspension in the right injury and 100 μL of saline in the left injury, carefully injected with an insulin syringe introduced lateral to the injury and directed towards the injury bed. For each time point (days 5 and 7), injury strength was tested in 7 nothing applied control guinea pigs and 8 stanozolol guinea pigs after carefully removing dressing and sutures. Injury strength was measured by applying a vacuum to the injury and recording the pressure at which the injury fails. Biomechanical testing was performed under anesthesia using the […] (SRI Technologies, Nashville). A disposable acrylic test ring was placed around the injury and secured to the skin using acrylate glue. The BTC-2000™ test chamber (2.5 cm ID) was mated to the test ring. An escalating negative pressure was applied to the injury at a rate of 10 mm Hg/second, producing a multi-axial stress on the injury. […]

On to `C[C@]12Cc3c[nH]nc3C[C@@H]1CC[C@@H]1[C@@H]2CC[C@@]2(C)[C@H]1CC[C@]2(C)O` [stanozolol], for which the “Effect on contralateral (saline treated, left flank) injuries in stanozolol treated animals” value (local stanozolol in right injury only, days 5 and 7) is on record as “No effect”. In addition, under “locally injected bolus dose of 1 mg initially, then 0.5 mg on days 2, 4, 6, tested on days 5 and seven”, the “Injury strength when exposed to pressure, compared to injuries with control or placebo (FIG. 1)” value is reported as “highest injury strength”. For the same molecule, the “Injury strength (pressure at which the injury fails) compared to nothing applied control injuries” value (stanozolol aqueous suspension applied locally into right flank injury, 1 mg initially then 0.5 mg on days 2, 4, 6, tested on days 5 and 7) is on record as “significantly stronger”.
